Assay [1] concerns the target T1, EPHA2 (Homo sapiens, UniProt P29317).
T1 construct: purchased Carna Biosciences
Nature of the assay: Kinase panel profiling at 1 µmol/L (mobility shift assay, Carna). The format is biochemical. Particulars: 1 µmol/L of BTK inhibitor.

Assay [2] has as its target T2, EPHB2 (Homo sapiens, UniProt P29323).
T2 construct: purchased Carna Biosciences
T2 sequence (P29323 19-1055): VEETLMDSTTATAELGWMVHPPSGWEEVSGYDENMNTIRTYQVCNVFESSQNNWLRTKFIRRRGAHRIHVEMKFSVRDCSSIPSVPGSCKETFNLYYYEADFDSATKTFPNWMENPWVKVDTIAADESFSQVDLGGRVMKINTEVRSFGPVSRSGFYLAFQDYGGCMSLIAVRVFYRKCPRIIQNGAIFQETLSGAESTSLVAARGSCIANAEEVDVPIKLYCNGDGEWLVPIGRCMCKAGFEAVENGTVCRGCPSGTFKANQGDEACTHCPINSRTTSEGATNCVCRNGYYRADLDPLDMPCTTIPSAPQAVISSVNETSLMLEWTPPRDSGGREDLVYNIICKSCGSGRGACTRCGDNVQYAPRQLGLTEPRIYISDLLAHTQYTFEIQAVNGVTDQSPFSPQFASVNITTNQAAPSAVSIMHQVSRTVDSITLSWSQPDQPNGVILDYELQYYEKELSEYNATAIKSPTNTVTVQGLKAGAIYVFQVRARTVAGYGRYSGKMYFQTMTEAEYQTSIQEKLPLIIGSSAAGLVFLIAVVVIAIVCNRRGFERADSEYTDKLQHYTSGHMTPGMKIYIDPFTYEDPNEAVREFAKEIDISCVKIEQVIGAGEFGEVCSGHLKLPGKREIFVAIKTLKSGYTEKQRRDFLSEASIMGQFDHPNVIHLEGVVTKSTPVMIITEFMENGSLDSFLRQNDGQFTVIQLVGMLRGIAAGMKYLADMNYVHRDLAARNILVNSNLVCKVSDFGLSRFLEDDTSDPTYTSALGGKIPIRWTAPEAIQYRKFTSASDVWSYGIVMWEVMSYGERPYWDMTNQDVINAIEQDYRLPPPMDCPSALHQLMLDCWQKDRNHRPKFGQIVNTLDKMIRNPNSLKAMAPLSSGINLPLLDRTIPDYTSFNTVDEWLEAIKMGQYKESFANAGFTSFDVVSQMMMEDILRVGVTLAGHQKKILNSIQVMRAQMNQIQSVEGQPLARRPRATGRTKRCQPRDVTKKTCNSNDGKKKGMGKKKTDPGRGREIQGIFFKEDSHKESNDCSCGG
The assay is described as above. The format is biochemical. The note with it: 1 µmol/L of BTK inhibitor.

For assay [3], the target named is T3, FER (Homo sapiens, UniProt P16591).
T3 construct: purchased Carna Biosciences
Described as above. The format is biochemical. The note with it: 1 µmol/L of BTK inhibitor.

Assay [4] deals with T4, HER2 (Homo sapiens, UniProt P04626).
T4 construct: purchased Carna Biosciences
The description is as above. The format is biochemical. Particulars: 1 µmol/L of BTK inhibitor.

Assay [5] deals with T5, IRR (Homo sapiens, UniProt P14616).
T5 construct: purchased Carna Biosciences
The description is as above. The format is biochemical. Particulars: 1 µmol/L of BTK inhibitor.

Assay [6] has as its target T6, LCK (Homo sapiens, UniProt P06239).
T6 construct: purchased Carna Biosciences
The description is as above. The format is biochemical. Particulars: 1 µmol/L of BTK inhibitor.

Assay [7] deals with T7, TRKB (Homo sapiens, UniProt Q16620).
T7 construct: purchased Carna Biosciences
Described as above. The format is biochemical. The note with it: 1 µmol/L of BTK inhibitor.

For assay [8], the target named is T8, TRKC (Homo sapiens, UniProt Q16288).
T8 construct: purchased Carna Biosciences
T8 sequence (Q16288 32-839): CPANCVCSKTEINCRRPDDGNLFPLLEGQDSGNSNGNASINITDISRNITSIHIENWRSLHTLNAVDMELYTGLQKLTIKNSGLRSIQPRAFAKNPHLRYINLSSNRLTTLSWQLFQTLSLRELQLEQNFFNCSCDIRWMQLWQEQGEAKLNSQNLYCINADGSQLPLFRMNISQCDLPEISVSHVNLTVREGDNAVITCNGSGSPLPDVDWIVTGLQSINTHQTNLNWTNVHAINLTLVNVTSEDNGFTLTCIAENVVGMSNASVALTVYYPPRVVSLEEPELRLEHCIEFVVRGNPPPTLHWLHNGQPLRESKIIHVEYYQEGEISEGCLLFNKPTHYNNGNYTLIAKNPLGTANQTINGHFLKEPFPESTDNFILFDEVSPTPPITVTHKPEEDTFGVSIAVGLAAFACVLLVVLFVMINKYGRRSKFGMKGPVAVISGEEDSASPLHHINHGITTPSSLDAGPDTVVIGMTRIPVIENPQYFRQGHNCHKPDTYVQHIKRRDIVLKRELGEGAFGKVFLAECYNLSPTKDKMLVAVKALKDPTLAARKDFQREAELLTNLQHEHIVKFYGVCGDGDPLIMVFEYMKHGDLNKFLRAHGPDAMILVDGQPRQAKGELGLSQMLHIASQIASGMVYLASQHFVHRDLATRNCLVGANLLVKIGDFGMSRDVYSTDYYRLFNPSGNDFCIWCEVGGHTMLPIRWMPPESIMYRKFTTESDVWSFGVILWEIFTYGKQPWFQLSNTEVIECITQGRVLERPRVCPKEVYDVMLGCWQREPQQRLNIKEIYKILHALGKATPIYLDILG
The assay is described as above. It is filed as biochemical. Particulars: 1 µmol/L of BTK inhibitor.

The target in assay [9] is T9, TYK2 (Homo sapiens, UniProt P29597).
T9 construct: purchased Carna Biosciences
T9 sequence (P29597 whole entry): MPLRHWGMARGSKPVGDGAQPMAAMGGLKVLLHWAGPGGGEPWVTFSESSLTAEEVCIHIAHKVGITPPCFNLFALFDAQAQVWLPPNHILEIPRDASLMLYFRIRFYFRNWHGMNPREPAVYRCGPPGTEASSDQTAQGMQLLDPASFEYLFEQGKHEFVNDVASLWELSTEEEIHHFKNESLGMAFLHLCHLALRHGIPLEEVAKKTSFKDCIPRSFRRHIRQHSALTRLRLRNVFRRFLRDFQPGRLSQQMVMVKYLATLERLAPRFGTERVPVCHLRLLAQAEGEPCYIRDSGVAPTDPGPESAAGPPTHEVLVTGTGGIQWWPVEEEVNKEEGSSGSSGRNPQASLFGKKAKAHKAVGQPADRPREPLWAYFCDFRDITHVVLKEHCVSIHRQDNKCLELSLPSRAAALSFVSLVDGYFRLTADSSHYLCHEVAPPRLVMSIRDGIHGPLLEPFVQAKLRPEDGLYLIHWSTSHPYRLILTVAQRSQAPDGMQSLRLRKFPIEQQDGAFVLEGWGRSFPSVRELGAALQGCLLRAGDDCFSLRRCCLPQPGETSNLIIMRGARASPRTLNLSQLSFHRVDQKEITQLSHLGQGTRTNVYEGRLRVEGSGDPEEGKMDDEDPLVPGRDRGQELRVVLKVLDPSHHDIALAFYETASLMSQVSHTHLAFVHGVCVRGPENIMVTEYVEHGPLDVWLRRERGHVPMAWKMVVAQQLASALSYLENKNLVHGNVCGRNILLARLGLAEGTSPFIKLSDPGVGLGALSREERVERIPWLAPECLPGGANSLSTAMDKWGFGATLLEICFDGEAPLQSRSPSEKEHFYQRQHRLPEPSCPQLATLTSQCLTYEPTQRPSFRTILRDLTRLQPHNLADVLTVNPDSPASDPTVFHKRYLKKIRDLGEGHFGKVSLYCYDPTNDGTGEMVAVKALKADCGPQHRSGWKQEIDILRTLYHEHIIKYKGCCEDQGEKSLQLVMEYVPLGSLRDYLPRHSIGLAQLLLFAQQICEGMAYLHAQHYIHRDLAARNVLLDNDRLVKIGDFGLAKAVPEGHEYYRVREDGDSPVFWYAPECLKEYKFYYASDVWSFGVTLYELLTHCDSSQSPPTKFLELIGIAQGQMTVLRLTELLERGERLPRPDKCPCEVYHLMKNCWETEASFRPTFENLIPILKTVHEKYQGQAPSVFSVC
The description is as above. It is filed as biochemical. Particulars: 1 µmol/L of BTK inhibitor.

Assay [10] deals with T10, BUB1/BUB3 (Homo sapiens, UniProt O43683).
T10 construct: purchased Carna Biosciences
T10 sequence (O43683 whole entry): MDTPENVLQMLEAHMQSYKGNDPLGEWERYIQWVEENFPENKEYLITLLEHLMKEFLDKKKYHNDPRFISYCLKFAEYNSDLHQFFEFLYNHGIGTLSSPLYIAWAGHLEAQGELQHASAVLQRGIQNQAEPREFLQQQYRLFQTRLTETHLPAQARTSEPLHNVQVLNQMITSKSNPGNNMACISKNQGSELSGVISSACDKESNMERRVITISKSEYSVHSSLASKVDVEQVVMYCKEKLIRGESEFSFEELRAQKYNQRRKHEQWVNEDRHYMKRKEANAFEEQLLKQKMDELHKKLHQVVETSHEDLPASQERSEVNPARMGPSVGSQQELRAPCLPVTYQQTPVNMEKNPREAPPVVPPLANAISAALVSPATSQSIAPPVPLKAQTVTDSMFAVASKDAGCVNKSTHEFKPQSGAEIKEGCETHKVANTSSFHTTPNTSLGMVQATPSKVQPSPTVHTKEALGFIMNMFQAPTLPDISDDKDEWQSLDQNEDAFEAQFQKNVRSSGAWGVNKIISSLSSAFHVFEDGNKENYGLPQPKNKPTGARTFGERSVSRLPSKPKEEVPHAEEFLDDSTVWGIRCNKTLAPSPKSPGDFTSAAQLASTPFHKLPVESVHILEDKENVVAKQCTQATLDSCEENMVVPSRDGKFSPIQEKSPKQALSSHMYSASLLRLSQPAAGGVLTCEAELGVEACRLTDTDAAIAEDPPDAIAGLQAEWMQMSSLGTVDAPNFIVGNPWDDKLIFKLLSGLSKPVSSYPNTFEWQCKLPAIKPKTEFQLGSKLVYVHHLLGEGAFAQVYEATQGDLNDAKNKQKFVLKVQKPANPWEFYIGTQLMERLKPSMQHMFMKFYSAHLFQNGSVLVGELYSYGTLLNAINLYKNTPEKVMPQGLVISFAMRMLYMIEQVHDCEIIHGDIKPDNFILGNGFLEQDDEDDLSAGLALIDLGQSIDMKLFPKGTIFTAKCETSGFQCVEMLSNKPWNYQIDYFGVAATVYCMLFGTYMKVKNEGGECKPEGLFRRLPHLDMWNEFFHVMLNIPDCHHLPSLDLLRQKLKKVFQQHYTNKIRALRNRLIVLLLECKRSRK
T10 sequence (O43684 whole entry partner): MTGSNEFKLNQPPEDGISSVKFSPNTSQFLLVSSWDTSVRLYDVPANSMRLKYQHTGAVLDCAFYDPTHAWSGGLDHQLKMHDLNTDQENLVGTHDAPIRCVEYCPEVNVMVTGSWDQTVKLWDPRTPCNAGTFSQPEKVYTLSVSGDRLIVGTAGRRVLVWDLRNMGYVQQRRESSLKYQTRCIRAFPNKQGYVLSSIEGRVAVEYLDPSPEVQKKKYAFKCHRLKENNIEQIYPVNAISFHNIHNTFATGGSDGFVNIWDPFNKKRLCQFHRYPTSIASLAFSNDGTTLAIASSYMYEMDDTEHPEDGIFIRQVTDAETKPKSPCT
Described as above. It is filed as biochemical. Particulars: 1 µmol/L of BTK inhibitor.

Assay [11] deals with T11, CK2α2/β (Homo sapiens, UniProt P19784).
T11 construct: purchased Carna Biosciences
The assay is described as above. It is filed as biochemical. Particulars: 1 µmol/L of BTK inhibitor.

Assay [12] deals with T12, PAK1 (Homo sapiens, UniProt Q13153).
T12 construct: purchased Carna Biosciences
T12 sequence (Q13153 whole entry): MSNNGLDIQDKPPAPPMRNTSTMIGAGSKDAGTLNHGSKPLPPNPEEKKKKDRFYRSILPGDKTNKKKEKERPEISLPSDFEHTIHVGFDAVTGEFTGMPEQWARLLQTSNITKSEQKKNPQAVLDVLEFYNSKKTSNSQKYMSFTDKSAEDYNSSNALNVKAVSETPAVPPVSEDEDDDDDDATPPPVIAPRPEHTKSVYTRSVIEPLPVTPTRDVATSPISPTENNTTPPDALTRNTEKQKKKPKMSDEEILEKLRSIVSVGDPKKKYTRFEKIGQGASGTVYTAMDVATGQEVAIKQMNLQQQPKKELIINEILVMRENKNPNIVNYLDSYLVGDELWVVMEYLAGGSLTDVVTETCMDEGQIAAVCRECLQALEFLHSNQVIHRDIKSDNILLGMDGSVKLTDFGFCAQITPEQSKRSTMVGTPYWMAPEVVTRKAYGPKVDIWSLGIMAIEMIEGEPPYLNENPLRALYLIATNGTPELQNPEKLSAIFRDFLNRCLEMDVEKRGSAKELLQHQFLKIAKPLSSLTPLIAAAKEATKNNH
The assay is described as above. Particulars: 1 µmol/L of BTK inhibitor. It is filed as biochemical.

Assay [13] has as its target T13, PDHK4 (Homo sapiens, UniProt Q16654).
T13 construct: purchased Carna Biosciences
Described as above. The format is biochemical. The note with it: 1 µmol/L of BTK inhibitor.

For assay [14], the target named is T14, PIM2 (Homo sapiens, UniProt Q9P1W9).
T14 construct: purchased Carna Biosciences
T14 sequence (Q9P1W9 whole entry): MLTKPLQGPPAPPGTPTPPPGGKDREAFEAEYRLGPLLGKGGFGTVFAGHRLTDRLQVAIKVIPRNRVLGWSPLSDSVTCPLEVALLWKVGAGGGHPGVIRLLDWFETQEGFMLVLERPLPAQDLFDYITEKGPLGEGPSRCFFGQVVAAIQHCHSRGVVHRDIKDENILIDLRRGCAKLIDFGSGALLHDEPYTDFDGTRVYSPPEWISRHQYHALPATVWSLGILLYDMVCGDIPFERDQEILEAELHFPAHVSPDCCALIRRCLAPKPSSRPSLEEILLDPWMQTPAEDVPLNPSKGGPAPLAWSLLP
Described as above. It is filed as biochemical. The note with it: 1 µmol/L of BTK inhibitor.

Assay [15] deals with T15, ROCK1 (Homo sapiens, UniProt Q13464).
T15 construct: purchased Carna Biosciences
The description is as above. It is filed as biochemical. Particulars: 1 µmol/L of BTK inhibitor.

For assay [16], the target named is T16, TSSK1 (Homo sapiens, UniProt Q9BXA7).
T16 construct: purchased Carna Biosciences
T16 sequence (Q9BXA7 1-367): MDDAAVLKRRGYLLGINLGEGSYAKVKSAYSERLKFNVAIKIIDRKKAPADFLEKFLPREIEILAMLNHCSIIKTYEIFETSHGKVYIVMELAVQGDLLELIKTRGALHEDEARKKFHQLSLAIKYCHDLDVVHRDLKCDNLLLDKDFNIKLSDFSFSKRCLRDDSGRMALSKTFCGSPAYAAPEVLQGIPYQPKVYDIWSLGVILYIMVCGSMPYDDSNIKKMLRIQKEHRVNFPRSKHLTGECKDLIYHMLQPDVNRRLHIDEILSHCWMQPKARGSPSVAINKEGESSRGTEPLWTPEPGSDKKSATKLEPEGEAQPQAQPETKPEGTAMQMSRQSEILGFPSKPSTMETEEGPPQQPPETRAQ
The description is as above. The note with it: 1 µmol/L of BTK inhibitor. The format is biochemical.

Assay [17] concerns the target ERK2 (Homo sapiens, UniProt P28482). Nature of the assay: Kinase enzyme activity assay (mobility shift assay, Carna). Particulars: for Percentage inhibition of kinase enzyme activity: Erk2, 1 µmol/L of BTK inhibitor.

T13 sequence (Q16654 whole entry): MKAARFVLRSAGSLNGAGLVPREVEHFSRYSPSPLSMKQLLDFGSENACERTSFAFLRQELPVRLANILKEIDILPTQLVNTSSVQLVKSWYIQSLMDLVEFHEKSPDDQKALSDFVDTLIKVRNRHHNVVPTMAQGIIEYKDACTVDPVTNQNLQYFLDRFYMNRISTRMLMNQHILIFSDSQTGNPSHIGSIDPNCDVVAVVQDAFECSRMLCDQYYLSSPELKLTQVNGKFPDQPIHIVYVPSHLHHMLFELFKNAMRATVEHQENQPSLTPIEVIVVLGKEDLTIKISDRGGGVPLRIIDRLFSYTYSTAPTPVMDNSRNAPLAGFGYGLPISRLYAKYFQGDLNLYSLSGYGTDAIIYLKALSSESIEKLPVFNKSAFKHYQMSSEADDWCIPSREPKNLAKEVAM
Chain of ERK2 (P28482 whole entry): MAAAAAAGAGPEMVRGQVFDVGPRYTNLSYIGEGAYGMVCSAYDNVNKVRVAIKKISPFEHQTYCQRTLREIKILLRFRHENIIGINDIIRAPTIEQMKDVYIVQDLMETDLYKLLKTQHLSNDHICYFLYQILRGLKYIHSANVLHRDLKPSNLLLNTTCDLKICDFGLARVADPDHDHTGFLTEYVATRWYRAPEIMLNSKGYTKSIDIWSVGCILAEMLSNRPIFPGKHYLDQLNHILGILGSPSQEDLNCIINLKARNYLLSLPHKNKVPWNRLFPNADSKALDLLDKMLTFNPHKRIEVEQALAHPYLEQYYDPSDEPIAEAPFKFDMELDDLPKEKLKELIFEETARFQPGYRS

`CC#CC(=O)N1CCC[C@H]1c1nc(-c2ccc(C(=O)Nc3ccccn3)cc2)c2c(N)nccn12` [acalabrutinib]: the “Percentage inhibition of kinase enzyme activity” value (“Percentage inhibition” for short) is -3.60% in assay [1]; -0.11% in [2]; -2.54% in assay [3]; 16.11% in [4]; -0.87% in assay [5]; 6.84% in assay [6]. For the same molecule, the “Percentage inhibition” value is 13.81% in [7]; 11.12% in assay [8]; 12.80% in assay [9]; 5.51% in [10]; 9.56% in assay [11]; -0.37% in [12]. Besides, the “Percentage inhibition” value in assay [13] is on record as 0.39%; in assay [14] it was -16.50%; in [15] it was -7.78%; in [16] it was -7.15%; in assay [17], -2.02%.

For `COc1ccc(F)cc1C(=O)NCc1ccc(-c2nn([C@@H](C)C(F)(F)F)c(N)c2C(N)=O)cc1` [pirtobrutinib], the “Percentage inhibition” value is on record as 4.53% in assay [1]; 6.14% in assay [2]; 7.19% in assay [3]; 35.83% in [4]; -6.47% in assay [5]; 30.64% in assay [6]. Besides, the “Percentage inhibition” value was 4.46% in [7]; 5.23% in [8]; -2.78% in [9]; 3.40% in assay [10]; 4.12% in assay [11]; 5.73% in [12]. Further, the “Percentage inhibition” value in assay [13] is 3.76%; in assay [14], -1.91%; in assay [15], -4.30%; in assay [16] it was -0.58%; in assay [17] it was 6.64%.

`C=CC(=O)N1CCC[C@@H](n2nc(-c3ccc(Oc4ccccc4)cc3)c3c(N)ncnc32)C1` [ibrutinib]: the “Percentage inhibition” value came to 6.83% in assay [1]; 27.83% in assay [2]; 100.31% in assay [4]; 11.54% in assay [5]; 100.25% in assay [6]; 25.78% in [7]. Besides, the “Percentage inhibition” value in assay [8] is recorded as 23.90%; in [9] it was 6.93%; in [10], 5.19%; in [11], -7.37%; in assay [12] it was 6.57%; in assay [14], -5.09%. In addition, the “Percentage inhibition” value was -5.42% in assay [15], 9.10% in assay [16] and -6.90% in assay [17].

Consider `O=C(c1ccc(Oc2ccccc2)cc1Cl)c1c[nH]c2ncnc(N[C@@H]3CC[C@@H](CO)OC3)c12` [nemtabrutinib], for which the “Percentage inhibition” value in [1] was 33.13%; in [2], 48.93%; in [3], 96.49%; in [4], 99.89%; in assay [5], 77.13%; in [6], 70.86%. The “Percentage inhibition” value in [7] is on record as 101.64%; in [8] it was 99.56%; in [9] it was 10.79%; in assay [10], -0.62%; in assay [11] it was -3.55%; in assay [12], 79.33%. Moreover, the “Percentage inhibition” value is given as -2.73% in [13]; -5.51% in [14]; 16.05% in [15]; 5.68% in assay [16]; 67.16% in assay [17]. The IC50 in assay [17] is 505 nM. The “Inhibition of ERK2” value in assay [17] is listed as “did not inhibit”.

Turning to `C=CC(=O)N1CCC([C@@H]2CCNc3c(C(N)=O)c(-c4ccc(Oc5ccccc5)cc4)nn32)CC1` [zanubrutinib], the “Percentage inhibition” value in [1] is given as -0.10%; in assay [2], -1.32%; in assay [3], 1.42%; in assay [4], 98.58%; in [5] it was 34.27%; in assay [6] it was 0.21%.

Values taken from publication PMC12586182 (Frontiers in Oncology, 2025).
